The supplement of paper PMC10331698
± gives the standard deviation of the averaged measurements.

Experiments:
Test in all cases: level (log10 ratio to DMSO vehicle control); higher = higher biomarker level / cell amount than vehicle control
Conditions in all cases: in DMSO
[1] = compound: C=C(C)C(=O)OCC(F)(F)C(F)(F)C(F)(F)F [2,2,3,3,4,4,4-Heptafluorobutyl methacrylate]
Experimental: (§1)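 BioMAP Diversity Plus panel of 12 human primary cell co-culture systems (3C, 4H, LPS, SAg, BT, BF4T, BE3C, CASM3C, HDF3CGF, KF3CT, MyoF, Mphg). Compounds were added 1 h before stimulation and left for 24 h (MyoF 48 h; BT 72 h for soluble read-outs or 6 d for IgG). Biomarkers were read by ELISA, cytotoxicity by SRB, PBMC viability and proliferation by Alamar Blue. Each well value was divided by the mean of 8 DMSO control wells on the same plate and log10 transformed; duplicate blinded samples were tested at 4 concentrations.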

[2] = compound: Cc1ccc(S(=O)(=O)OCC(F)(F)C(F)(F)C(F)(F)C(F)(F)C(F)(F)C(F)F)cc1 [1H,1H,7H-Perfluoroheptyl 4-methylbenzenesulfonate]
Experimental: as §1

[3] = compound: FC(F)(F)C(F)(F)C(F)(F)C(F)(F)CCI [1H,1H,2H,2H-Perfluorohexyl iodide]
Experimental: as §1

[4] = compound: O=C(Cl)C(F)(F)C(F)(F)C(F)(F)C(=O)Cl [Hexafluoroglutaryl chloride]
Experimental: as §1

[5] = compound: OCC(F)(F)C(F)(F)C(F)(F)C(F)(F)C(F)(F)C(F)(F)C(F)(F)C(F)(F)CO [1H,1H,10H,10H-Perfluorodecane-1,10-diol]
Experimental: as §1

[6] = compound: OCC(F)(F)C(F)(F)C(F)(F)C(F)(F)C(F)(F)C(F)(F)F [6:1 Fluorotelomer alcohol]
Experimental: as §1

| Test System | level (log10) ([1]; 6700 nM) | level (log10) ([1]; 20000 nM) | level (log10) ([1]; 60000 nM) | level (log10) ([2]; 6700 nM) | level (log10) ([2]; 20000 nM) | level (log10) ([2]; 60000 nM) | level (log10) ([3]; 6700 nM) | level (log10) ([3]; 20000 nM) | level (log10) ([3]; 60000 nM) | level (log10) ([4]; 6700 nM) | level (log10) ([4]; 20000 nM) | level (log10) ([4]; 60000 nM) | level (log10) ([5]; 6700 nM) | level (log10) ([5]; 20000 nM) | level (log10) ([5]; 60000 nM) | level (log10) ([6]; 6700 nM) | level (log10) ([6]; 20000 nM) | level (log10) ([6]; 60000 nM) |
| --- | --- | --- | --- | --- | --- | --- | --- | --- | --- | --- | --- | --- | --- | --- | --- | --- | --- | --- |
| BE3C:CXCL9/MIG | 0.003 ± 0.0085 | 0.0025 ± 0.0035 | 0.01 ± 0.0071 | 0.005 ± 0.016 | -0.001 ± 0.0028 | 0.0005 ± 0.021 | 0.006 ± 0.0085 | 0.002 ± 0.016 | 0.0165 ± 0.028 | 0.018 ± 0.011 | 0.007 ± 0.0099 | 0.0065 ± 0.022 | -0.0105 ± 0.0021 | -0.0495 ± 0.0021 | -0.53 | -0.005 ± 0.013 | -0.002 ± 0.0099 | -0.545 ± 0.4 |
| BT:sIL-17A | -0.0665 ± 0.11 | 0.042 ± 0.065 | 0.0245 ± 0.086 | 0.093 ± 0.0099 | 0.037 ± 0.045 | -0.117 ± 0.12 | 0.0075 ± 0.12 | 0.028 ± 0.011 | -0.249 ± 0.1 | 0.005 ± 0.098 | -0.049 ± 0.18 | 0.0285 ± 0.13 | -0.0865 ± 0.012 | -0.208 ± 0.24 | -0.729 | -0.063 ± 0.088 | -0.107 ± 0.11 | -0.475 ± 0.093 |
| BF4T:SRB | -0.003 ± 0.0042 | -0.011 ± 0.0071 | 0.0315 ± 0.039 | -0.003 ± 0.0042 | -0.008 ± 0.0028 | -0.015 ± 0.0099 | -0.009 ± 0.0028 | -0.0055 ± 0.005 | -0.0035 ± 0.0078 | -0.015 ± 0.0099 | -0.0115 ± 0.0035 | -0.0195 ± 0.0035 | -0.005 ± 0.0028 | -0.0315 ± 0.0035 | -0.097 | -0.0045 ± 0.0064 | -0.0045 ± 0.013 | -0.004 ± 0.023 |
| 4H:SRB | -0.0025 ± 0.005 | -0.005 ± 0.0042 | -0.001 ± 0.0014 | 0.0005 ± 0.026 | -0.002 ± 0.011 | -0.0605 ± 0.0078 | 0.0015 ± 0.0035 | -0.0045 ± 0.026 | 0.0005 ± 0.0078 | 0 ± 0.0014 | 0.0055 ± 0.015 | 0 ± 0.014 | -0.0085 ± 0.011 | -0.026 ± 0.014 | -0.153 | -0.0125 ± 0.005 | -0.006 ± 0.0085 | -0.002 ± 0.014 |
| BE3C:CD54/ICAM-1 | 0.009 ± 0.023 | -0.004 ± 0.034 | 0.005 ± 0.0014 | 0.014 ± 0.0057 | -0.023 ± 0.02 | -0.012 ± 0.0014 | 0.0035 ± 0.0035 | 0.004 ± 0.013 | 0.0105 ± 0.011 | 0.002 ± 0.0071 | -0.002 ± 0.017 | 0.0075 ± 0.025 | 0.004 ± 0.0085 | -0.0305 ± 0.0064 | -0.232 | 0.0055 ± 0.019 | -0.013 ± 0.016 | 0.0065 ± 0.0021 |
| 3C:HLA-DR | -0.01 ± 0.013 | -0.0055 ± 0.0078 | 0.001 ± 0.0042 | 0.0215 ± 0.016 | 0.0165 ± 0.0021 | 0.0085 ± 0.022 | -0.0005 ± 0.029 | -0.035 ± 0.04 | -0.0305 ± 0.04 | -0.008 ± 0.023 | -0.006 ± 0.013 | -0.0085 ± 0.0035 | -0.039 ± 0.02 | -0.031 ± 0.021 | -0.131 | 0.004 ± 0.011 | -0.003 ± 0.0028 | -0.0095 ± 0.0078 |
| BF4T:CD106/VCAM-1 | 0.009 ± 0.013 | -0.021 ± 0.011 | -0.0245 ± 0.0035 | 0.009 ± 0.042 | 0.024 ± 0.0014 | -0.0055 ± 0.04 | -0.0245 ± 0.0021 | -0.044 ± 0.025 | -0.0065 ± 0.086 | -0.0385 ± 0.039 | -0.022 ± 0.058 | -0.058 ± 0.0085 | -0.012 ± 0.023 | -0.139 ± 0.037 | -0.145 | 0.0075 ± 0.0021 | -0.007 ± 0.031 | -0.032 ± 0.0028 |
| LPS:CD69 | -0.019 ± 0.013 | -0.024 ± 0.028 | -0.024 ± 0.011 | -0.026 ± 0.048 | -0.0665 ± 0.088 | -0.055 | 0 ± 0.013 | -0.008 ± 0.0071 | 0.0085 ± 0.011 | 0.0045 ± 0.021 | -0.0195 ± 0.07 | -0.005 ± 0.051 | -0.0215 ± 0.073 | -0.039 ± 0.045 | -0.111 | -0.017 ± 0.0042 | -0.0135 ± 0.0064 | -0.0085 ± 0.005 |
| 4H:CCL26/Eotaxin-3 | 0.005 ± 0.02 | 0.0045 ± 0.0078 | -0.0035 ± 0.022 | 0.007 ± 0.0057 | -0.0015 ± 0.013 | -0.057 ± 0.052 | -0.0145 ± 0.032 | -0.06 ± 0.013 | -0.1 ± 0.0042 | 0.016 ± 0.017 | 0.021 ± 0.027 | 0.013 ± 0.016 | -0.005 ± 0.037 | -0.0125 ± 0.035 | -0.179 | 0.01 ± 0.0085 | 0.012 ± 0.018 | -0.003 ± 0.025 |
| SAg:CD69 | -0.016 ± 0.0099 | -0.0215 ± 0.0021 | -0.009 ± 0.0042 | -0.01 ± 0.0099 | 0.0205 ± 0.016 | 0.0105 ± 0.00071 | 0.0135 ± 0.015 | -0.003 ± 0.0014 | -0.0125 ± 0.005 | -0.009 ± 0.021 | -0.02 ± 0.018 | -0.015 ± 0.0028 | -0.042 ± 0.044 | -0.0685 ± 0.066 | -0.119 | -0.0215 ± 0.011 | -0.0205 ± 0.0092 | -0.0045 ± 0.0064 |
| LPS:CD106/VCAM-1 | -0.0175 ± 0.013 | -0.018 ± 0.0085 | -0.02 ± 0.0085 | 0.01 ± 0.0071 | 0.006 ± 0.0014 | 0.025 ± 0.011 | 0.01 | -0.0195 ± 0.005 | -0.026 ± 0.016 | -0.0235 ± 0.011 | -0.0135 ± 0.012 | -0.011 ± 0.013 | -0.034 ± 0.028 | -0.0485 ± 0.012 | -0.052 | -0.033 ± 0.023 | -0.041 ± 0.016 | -0.023 ± 0.02 |
| SAg:CXCL8/IL-8 | -0.003 ± 0.061 | -0.002 ± 0.075 | 0.006 ± 0.02 | 0.005 ± 0.0014 | 0.0025 ± 0.0064 | 0.0265 ± 0.033 | 0.012 ± 0.0042 | -0.0035 ± 0.0092 | -0.006 ± 0.058 | -0.024 ± 0.0071 | -0.029 ± 0.042 | 0.0065 ± 0.005 | -0.0125 ± 0.037 | -0.01 ± 0.018 | -0.051 | -0.035 ± 0.048 | -0.0425 ± 0.025 | -0.013 ± 0.069 |
| LPS:CD40 | 0.0015 ± 0.037 | 0.024 ± 0.034 | 0.0525 ± 0.012 | -0.0185 ± 0.066 | 0.0215 ± 0.054 | 0.129 ± 0.061 | 0.0065 ± 0.0021 | -0.019 ± 0.02 | -0.0095 ± 0.025 | -0.011 ± 0.057 | 0.0315 ± 0.032 | -0.0375 ± 0.063 | -0.0225 ± 0.015 | -0.0585 ± 0.037 | -0.095 | 0.053 ± 0.016 | 0.048 ± 0.052 | 0.041 ± 0.0028 |
| LPS:CD142/Tissue Factor | -0.0225 ± 0.026 | -0.013 ± 0.025 | 0.02 ± 0.0057 | -0.0355 ± 0.11 | -0.022 ± 0.065 | 0.161 ± 0.039 | 0.0165 ± 0.0035 | 0.0275 ± 0.018 | 0.055 ± 0.051 | 0.0275 ± 0.018 | -0.0025 ± 0.044 | -0.0185 ± 0.0035 | 0 ± 0.038 | 0.0125 ± 0.069 | -0.035 | -0.0035 ± 0.03 | 0.0215 ± 0.011 | 0.0155 ± 0.016 |
| LPS:M-CSF | 0.0125 ± 0.042 | 0.007 ± 0.035 | 0.0165 ± 0.023 | -0.019 ± 0.033 | -0.026 ± 0.0057 | 0.008 ± 0.03 | 0.002 ± 0.0042 | 0 ± 0.0099 | -0.0055 ± 0.028 | -0.014 ± 0.05 | 0.001 ± 0.0085 | -0.0105 ± 0.005 | -0.018 ± 0.024 | -0.013 | 0.011 | 0.009 ± 0.038 | 0.0085 ± 0.05 | 0.0125 ± 0.023 |
| BT:sIL-17F | -0.0825 ± 0.14 | 0.0525 ± 0.083 | 0.0455 ± 0.033 | 0.0475 ± 0.13 | -0.037 ± 0.051 | -0.105 ± 0.032 | -0.0555 ± 0.04 | -0.03 ± 0.021 | -0.0755 ± 0.1 | 0.0195 ± 0.09 | -0.095 ± 0.0071 | -0.0065 ± 0.005 | -0.123 ± 0.064 | -0.054 ± 0.1 | -0.619 | 0.0105 ± 0.0035 | -0.0465 ± 0.025 | -0.388 ± 0.029 |
| 3C:CXCL8/IL-8 | 0.0395 ± 0.042 | 0.039 ± 0.0014 | 0.051 ± 0.04 | -0.0075 ± 0.0021 | -0.0245 ± 0.0078 | -0.061 ± 0.017 | -0.0135 ± 0.018 | -0.007 ± 0.014 | 0.0495 ± 0.00071 | -0.007 ± 0.023 | -0.0075 ± 0.029 | 0.047 ± 0.048 | -0.013 ± 0.035 | -0.007 ± 0.024 | 0.03 | -0.0095 ± 0.013 | 0.0145 ± 0.011 | 0.055 ± 0.057 |
